# According to patent US8748410B2, “Methods of treating aneurysm” (Wisconsin Alumni Research Foundation, priority 2010, dated 2014):
# Assays:
# [1] = test system: pre-existing (induced) AAAs; test: pre-existing (induced) AAAs in mice, delayed treatment; assay type: in vivo; details: weekly injection started 7 days after aneurysm induction, over 5 weeks vs. saline control
# Procedure: In addition, the inventors have extended their studies to cover the other major subclass of bisphosphonates (i.e., non-nitrogenous bisphosphonates) by studying the effect of etidronate (7.5 mg/kg i.v.) on aneurysm formation over 7 days (see FIG. 3B). The dose of etidronate was equivalent to FDA approved dose for Paget's disease (5-10 mg/kg). […] The bisphosphonate treatment corresponding to the data in FIG. 3A was started 1 week post surgery. The bisphosphonate treatments resulting in the data shown in FIGS. 4 (pamidronate) and 5 (etidronate) differed from the previous treatment in that they included weekly bisphosphonate administration immediately after surgery through 6 weeks post surgery.
# [2] = test system: calcium chloride induced AAA (CaCl2 AAA); test: calcium chloride induced AAA in mouse, aneurysm formation; assay type: in vivo; details: mice, 1.25 mg/kg i.v., after 7 days
# Source text: FIG. 2 illustrates the effect of OLCs inhibition on mouse AAA. Representative pictures of CaCl2 AAA with intravenous (“i.v.”) saline or bisphosphonate injection. Fold increase of the maximum size 7 days after the treatment was shown. n=3, P<0.05. Initially, the inventors identified robust calcification in human AAA samples. The inventors have also identified the existence of OLCs in the medial layer of aneurismal aorta, which were barely detected in age matched aortic tissues from autopsy and stenotic disease both by tartrate-resistant acid phosphatase (“TRAP”) staining, a conventional staining for osteoclast, and immunohistochemistry for osteoclast marker, TRAP (see FIG. 1). The inventors also have identified calcification and OLCs in experimental calcium chloride induced AAA (CaCl2 AAA) in mouse. […] (see FIG. 2) The dose of pamidronate was equivalent to FDA approved dose of pamidronate for osteolytic bone lesions (90 mg/body).
compound,measurement,setting,value
NCCC(O)(P(=O)(O)O)P(=O)(O)O [pamidronate],further growth of the aneurysm,[1],immediately halted further growth of the aneurysm
same,inhibition of aneurysm formation,[2],apparently complete inhibition of aneurysm formation
